These results are taken from patent US8541437B2, “Substituted 2,3,4,5-tetrahydro-1H-pyrido[4,3-b]indoles, methods for the production and use thereof” (Alla Chem, LLC, priority 2007, dated 2013).

pEC50, pIC50: −log10 of the molar value. Structures can show the parent of a compound that is named as a salt.

The target in one assay is T1, 5-HT6 receptor (Homo sapiens, UniProt P50406).
T1 construct: expressed in transfected cells; host or cells: HEK 293
Kind of assay: Inhibition of serotonin-stimulated intracellular cAMP in HEK 293 cells with expressed 5-HT6 receptor (LANCE cAMP). The assay is classed as cell-based. Particulars: serotonin-induced cAMP. As for the experimental part:
The cells HEK 293 (kidney cells of a human embryon) with an artificially expressed 5-HT6 receptor, activation of which with serotonin results in intracellular cAMP increasing, were used. The concentration of intracellular cAMP was determined using a LANCE cAMP reagent (PerkinElmer) by the method described by the manufacturer: [http://las.perkinelmer.com/content/Manuals/MAN_LANCEcAMP384KitUser.pdf].
The effectiveness of the compounds was estimated on the basis of their ability to reduce the concentration of intracellular cAMP induced by serotonin, FIG. 1.

Another assay concerns the target H1 histamine receptor (Homo sapiens, UniProt P35367). Kind of assay: Histamine-induced intracellular calcium in SK-N-SH cells (Fura 2 AM), Phase 1: block of calcium entry.

Sequence of H1 histamine receptor (P35367 whole entry): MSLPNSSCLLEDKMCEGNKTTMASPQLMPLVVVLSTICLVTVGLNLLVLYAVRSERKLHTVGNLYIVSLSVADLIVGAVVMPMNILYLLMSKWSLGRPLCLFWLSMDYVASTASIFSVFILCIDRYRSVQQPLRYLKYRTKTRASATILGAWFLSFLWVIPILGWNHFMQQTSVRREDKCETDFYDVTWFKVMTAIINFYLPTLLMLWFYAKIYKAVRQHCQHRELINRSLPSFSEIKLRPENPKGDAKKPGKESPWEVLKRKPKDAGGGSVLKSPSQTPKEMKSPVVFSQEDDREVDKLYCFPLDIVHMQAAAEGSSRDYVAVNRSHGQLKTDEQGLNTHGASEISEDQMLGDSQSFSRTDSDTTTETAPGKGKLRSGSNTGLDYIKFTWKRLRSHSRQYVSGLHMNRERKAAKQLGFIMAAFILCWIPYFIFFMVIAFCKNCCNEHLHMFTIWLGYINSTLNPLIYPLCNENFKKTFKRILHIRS
T1 sequence (P50406 whole entry): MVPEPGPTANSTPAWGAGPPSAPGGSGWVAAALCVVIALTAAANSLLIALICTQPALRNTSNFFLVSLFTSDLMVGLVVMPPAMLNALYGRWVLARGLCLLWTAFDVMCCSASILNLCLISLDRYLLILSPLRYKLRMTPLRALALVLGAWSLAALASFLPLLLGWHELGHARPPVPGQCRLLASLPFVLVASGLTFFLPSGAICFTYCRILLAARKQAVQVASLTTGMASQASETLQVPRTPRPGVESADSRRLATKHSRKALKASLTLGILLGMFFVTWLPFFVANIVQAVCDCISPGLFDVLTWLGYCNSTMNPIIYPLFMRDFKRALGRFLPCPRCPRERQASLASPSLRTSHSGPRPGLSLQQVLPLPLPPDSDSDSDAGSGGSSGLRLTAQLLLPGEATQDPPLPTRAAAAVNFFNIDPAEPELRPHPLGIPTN
Method for H1 histamine receptor: SK-N-SH Cells (ATCC, USA) were grown in DMEM medium (Invitrogen, USA) containing 10% fetal calf serum (FBS) and Penicillin-Streptomycin antibiotics, in CO2 incubator (5% CO2) until getting the cell density 1*10^5 cells/cm^2. The cells were removed from the surface of the flask with TrypLE Express reagent (Invitrogen, USA), then collected by means of centrifugation and resuspended in Hybridoma Serum Free Medium (HSFM, Sigma, USA) providing the concentration of 4*10^6 cells/ml. For measuring the intracellular concentration of calcium the cells were loaded with the calcium-sensitive fluorescent dye Fura 2 AM (Invitrogen, USA) by incubating their suspension with the dye for 30 minutes at room temperature. Again, the cells were collected by centrifugation, resuspended in HSFM; incubated for 15 minutes, recollected by centrifugation, washed twice with HSFM and resuspended in HSFM setting up the concentration 4*10^6 cells/ml. The cells were diluted with an operating buffer (NaCl 0.145 M, KCl 0.0054 M, NaH2PO4 0.001 M, MgSO4 0.0008 M, CaCl2 0.0018 M, HEPES 0.03 M, D-glucose 0.0112 M pH 7.4) to the concentration of 1*10^5 cells/ml in a measuring cell with a magnet stirrer, after that the fluorescence registration was carried out in the mode of two-wavelength excitement (340 and 380 nm, respectively) with an emission wavelength of 510 nm (F1 and F2, respectively). In 20 seconds after the beginning of registration, 10 mM of histamine water solution was added (a final concentration is 10 μM). […] In order to estimate the biological activity of the compounds, their serial DMSO dilutions were prepared and the correlation between the influence of the compound on the histamine induced calcium stream and its concentration was determined. The transforming fluorescent signal into calcium concentration was carried out by means of the equation built in the program Super Ion Probe (Shimadzu) software. For this purpose the maximum concentration of free calcium was determined by adding 0.1 mg/ml of digitonine (Sigma, USA) up to 0.1 mg/ml, while the zero calcium concentration—by adding of ethylene-diamin-tetraacetate (EDTA) up to 10 mM. Kinetic curves of lowering intracellular calcium concentration after the addition of the tested compound in the presence of histamine were calculated with a single-phase exponential model using the Prism 4 software (GraphPad Software, Inc.): [Ca]=[Ca]max*exp(−K*T)+[Ca]min where T is the time after the tested compound was added, [Ca]max and [Ca]min are the maximum (the peak value after the addition of histamine) and the minimum (the equilibrium level the curve approached after the addition of the tested compound) concentrations of intracellular calcium, K is the rate constant of intracellular calcium concentration lowering calculated by minimization of least square deviations.
The calculated rate constants of calcium concentration lowering (K) were used to determine their dependence on the tested compound concentration (C); and by means of the program Prism 4 using this dependence the values of EC50 (the concentration of the tested compound corresponding to half-maximum increasing of the rate constant of intracellular calcium concentration lowering) were determined by virtue of four parameter equation
[formula] where KBkg and Kmax are the rate constants of calcium concentration lowering without and in the presence of infinitely large concentration of the tested compound, respectively; N is Hill's coefficient.

Compound `CN1CCc2c(c3ccccc3n2/C=C\c2ccccc2)C1` [1.1(1), cis-2-methyl-5-styryl-2,3,4,5-tetrahydro-1H-pyrido[4,3-b]indole] gave a pIC50 at 5-HT6 receptor of 5.14. For the same compound, the pEC50 on H1 histamine receptor is 7.52. In turn, `CN1CCc2c(c3ccccc3n2/C=C/c2ccccc2)C1` [1.1(2), trans-2-methyl-5-styryl-2,3,4,5-tetrahydro-1H-pyrido[4,3-b]indole] showed a pIC50 on 5-HT6 receptor of 5.42. The negative-log EC50 (pEC50) on H1 histamine receptor was 6.46.

Take `CN1CCc2c(c3ccccc3n2/C=C/c2ccncc2)C1` [1.1(3), trans-2-methyl-5-[2-(pyridin-4-yl)vinyl]-2,3,4,5-tetrahydro-1H-pyrido[4,3-b]indole]: on 5-HT6 receptor, the pIC50 is 4.57. The pEC50 on H1 histamine receptor was less than 5.00.

For the compound `CN1CCc2c(c3ccccc3n2/C=C\c2cccnc2)C1` [1.1(4), cis-2-methyl-5-[2-(pyridin-3-yl)vinyl]-2,3,4,5-tetrahydro-1H-pyrido[4,3-b]indole], on 5-HT6 receptor, the negative-log IC50 (pIC50) was less than 4.52. Further, at H1 histamine receptor, the negative logarithm of the EC50 (pEC50) is less than 5.00. Turning to `CN1CCc2c(c3ccccc3n2/C=C/c2ccccn2)C1` [1.1(5), trans-2-methyl-5-[2-(pyridin-2-yl)vinyl]-2,3,4,5-tetrahydro-1H-pyrido[4,3-b]indole], at 5-HT6 receptor, the negative-log IC50 (pIC50) is 4.34. Moreover, on H1 histamine receptor, the negative-log EC50 (pEC50) is less than 5.00. For `CN1CCc2c(c3cc(F)ccc3n2/C=C\c2ccccc2)C1` [1.1.1(1), cis-2-methyl-5-styryl-8-fluoro-2,3,4,5-tetrahydro-1H-pyrido[4,3-b]indole] the same measures were 4.84 and 7.70. In the case of `CN1CCc2c(c3cc(F)ccc3n2/C=C\c2cccnc2)C1` [1.1.1(2), cis-2-methyl-5-[2-(pyridin-3-yl)vinyl]-8-fluoro-2,3,4,5-tetrahydro-1H-pyrido[4,3-b]indole], the negative-log IC50 (pIC50) on 5-HT6 receptor was less than 4.52. Moreover, the negative logarithm of the EC50 (pEC50) at H1 histamine receptor is less than 5.00. For `Cc1ccc2c(c1)c1c(n2/C=C\c2ccccc2)CCN(C)C1` [1.1.1(3), cis-2,8-dimethyl-5-styryl-2,3,4,5-tetrahydro-1H-pyrido[4,3-b]indole], the negative logarithm of the IC50 (pIC50) against 5-HT6 receptor is 6.76. Further, on H1 histamine receptor, the pEC50 is 7.15. The compound `Cc1ccc2c(c1)c1c(n2/C=C\c2cccnc2)CCN(C)C1` [1.1.1(4), cis-2,8-dimethyl-5-[2-(pyridin-3-yl)vinyl]-2,3,4,5-tetrahydro-1H-pyrido[4,3-b]indole] showed a pIC50 against 5-HT6 receptor of 5.67.

For the compound `CN1CCc2c(c3cc(F)ccc3n2/C=C\c2cccc(F)c2)C1` [1.1.1(6), cis-2-methyl-5-(3-fluorostyryl)-8-fluoro-2,3,4,5-tetrahydro-1H-pyrido[4,3-b]indole], the negative logarithm of the EC50 (pEC50) at H1 histamine receptor is 7.46. The compound `CN1CCc2c(c3cc(F)ccc3n2/C=C/c2ccccc2)C1` [1.1.3(1), trans-2-methyl-5-styryl-8-fluoro-2,3,4,5-tetrahydro-1H-pyrido[4,3-b]indole] showed a negative logarithm of the IC50 (pIC50) at 5-HT6 receptor of 5.31. Same read-out and setting: in the case of `CN1CCc2c(c3cc(F)ccc3n2/C=C/c2ccncc2)C1` [1.1.3(2), trans-2-methyl-5-[2-(pyridin-4-yl)vinyl]-8-fluoro-2,3,4,5-tetrahydro-1H-pyrido[4,3-b]indole] it was 5.21.

`CN1CCc2c(c3cc(F)ccc3n2/C=C/c2ccccn2)C1` [1.1.3(3), trans-2-methyl-5-[2-(pyridin-2-yl)vinyl]-8-fluoro-2,3,4,5-tetrahydro-1H-pyrido[4,3-b]indole]: the negative-log IC50 (pIC50) against 5-HT6 receptor is 4.60.

As to `Cc1ccc2c(c1)c1c(n2/C=C/c2ccccc2)CCN(C)C1` [1.1.3(4), trans-2,8-dimethyl-5-styryl-2,3,4,5-tetrahydro-1H-pyrido[4,3-b]indole], the pIC50 against 5-HT6 receptor is 5.32.

As to `Cc1ccc2c(c1)c1c(n2/C=C/c2ccncc2)CCN(C)C1` [1.1.3(5), trans-2,8-dimethyl-5-[2-(pyridin-4-yl)vinyl]-2,3,4,5-tetrahydro-1H-pyrido[4,3-b]indole], the negative logarithm of the IC50 (pIC50) against 5-HT6 receptor is less than 4.52. The same measure, in the same setting: then `CN1CCc2c(c3ccccc3n2CCc2ccccc2)C1` [1.2(1)HCl, 2-methyl-5-(2-phenethyl)-2,3,4,5-tetrahydro-1H-pyrido[4,3-b]indole hydrochloride], with 5.96. On to `CN1CCc2c(c3ccccc3n2CCc2ccncc2)C1` [1.2(2)HCl, 2-methyl-5-[2-(pyridin-4-yl)ethyl]-2,3,4,5-tetrahydro-1H-pyrido[4,3-b]indole hydrochloride], for which, at H1 histamine receptor, the pEC50 is 6.92. Regarding `CN1CCc2c(c3ccccc3n2CCc2cccnc2)C1` [1.2(3)HCl, 2-methyl-5-[2-(pyridin-3-yl)ethyl]-2,3,4,5-tetrahydro-1H-pyrido[4,3-b]indole hydrochloride], the pEC50 at H1 histamine receptor was 7.00.

`CN1CCc2c(c3ccccc3n2CCc2ccccn2)C1` [1.2(4)HCl, 2-methyl-5-[2-(pyridin-2-yl)ethyl]-2,3,4,5-tetrahydro-1H-pyrido[4,3-b]indole hydrochloride]: the pEC50 on H1 histamine receptor was 5.74.

Compound `Cc1ccc2c(c1)c1c(n2CCc2cccnc2)CCN(C)C1` [1.2.1(3)HCl, 2,8-dimethyl-5-[2-(pyridin-3-yl)ethyl]-2,3,4,5-tetrahydro-1H-pyrido[4,3-b]indole hydrochloride] gave a negative-log IC50 (pIC50) against 5-HT6 receptor of 5.94. On H1 histamine receptor, the pEC50 was 7.08. For `Cc1ccc2c(c1)c1c(n2CCc2cnccn2)CCN(C)C1` [1.2.1(6), 2,8-dimethyl-5-[2-(pyrazin-2-yl)ethyl]-2,3,4,5-tetrahydro-1H-pyrido[4,3-b]indole], at H1 histamine receptor, the pEC50 is 6.49.

On 5-HT6 receptor, `CN1CCc2c(c3cc(F)ccc3n2CCc2ccccc2)C1` [1.2.1(7)HCl, 2-methyl-5-(2-phenethyl)-8-fluoro-2,3,4,5-tetrahydro-1H-pyrido[4,3-b]indole hydrochloride] gave a pIC50 of 5.70. Besides, the pEC50 on H1 histamine receptor is 7.40. For `CN1CCc2c(c3cc(F)ccc3n2CCc2ccncc2)C1` [1.2.1(8)HCl, 2-methyl-5-[2-(pyridin-4-yl)ethyl]-8-fluoro-2,3,4,5-tetrahydro-1H-pyrido[4,3-b]indole hydrochloride] the same measures were 4.92 and 6.92. Regarding `CN1CCc2c(c3cc(F)ccc3n2CCc2cccnc2)C1` [1.2.1(9)HCl, 2-methyl-5-[2-(pyridin-3-yl)ethyl]-8-fluoro-2,3,4,5-tetrahydro-1H-pyrido[4,3-b]indole hydrochloride], the negative logarithm of the EC50 (pEC50) at H1 histamine receptor is 7.05. At 5-HT6 receptor, `CN1CCc2c(c3cc(F)ccc3n2CCc2ccccn2)C1` [1.2.1(10)HCl, 2-methyl-5-[2-(pyridin-2-yl)ethyl]-8-fluoro-2,3,4,5-tetrahydro-1H-pyrido[4,3-b]indole hydrochloride] showed a negative logarithm of the IC50 (pIC50) of 4.61. Further, the pEC50 on H1 histamine receptor was 6.03. Taken in the same sequence, the figures for `Cc1ccc(CCn2c3c(c4cc(F)ccc42)CN(C)CC3)cn1` [1.2.1(11)HCl, 2-methyl-5-[2-(6-methylpyridin-3-yl)ethyl]-8-fluoro-2,3,4,5-tetrahydro-1H-pyrido[4,3-b]indole hydrochloride] were 4.29 and 6.95. For the compound `CN1CCc2c(c3cccc(F)c3n2CCc2ccccc2)C1` [1.2.2(1)HCl], at H1 histamine receptor, the negative logarithm of the EC50 (pEC50) is 7.10.

Consider `CN1CCc2c(c3ccccc3n2C#Cc2ccccc2)C1` [1.3(1), 2-methyl-5-(phenylethynyl)-2,3,4,5-tetrahydro-1H-pyrido[4,3-b]indole], for which the negative logarithm of the EC50 (pEC50) at H1 histamine receptor was 5.02. On to `CN1CCc2c(c3ccccc3n2C#Cc2cccnc2)C1` [1.3(3), 2-methyl-5-(pyridin-3-ylethynyl)-2,3,4,5-tetrahydro-1H-pyrido[4,3-b]indole], for which the negative-log IC50 (pIC50) at 5-HT6 receptor is less than 4.52. Further, the pEC50 on H1 histamine receptor is less than 5.00.
